Source: patent publication US7417054B2, “Naphthyridine compounds” (Janssen Pharmaceutica N.V., priority 2005, dated 2008)
Structures can show the parent of a compound that is named as a salt. Where two headings read alike, the source gives them in different places.

How the values were obtained:
Rat SERT = Rat SERT (Rattus norvegicus, UniProt P31652); assay: Rat brain SERT binding, [3H]-Citalopram displacement on rat brain membranes
Protocol: The supernatant was removed and re-centrifuged at 15,000 rpm for 30 min. […] Membranes were incubated with 0.6 nM [^3H]-Citalopram plus/minus test compounds for 60 min at 25° C. and harvested by rapid filtration over GF/C glass fiber filters (pretreated with 0.3% polyethylenimine) followed by four washes with ice-cold buffer.

human H3 receptor = target: T1, human H3 receptor (Homo sapiens, UniProt Q9Y5N1); assay: H3 receptor binding, N-[3H]-α-methylhistamine displacement on SK-N-MC cell membranes; settings: cloned human H3 receptor in SK-N-MC cell membranes; 0.8 nM N-[3H]-α-methylhistamine; 60 min at 25° C.
T1 construct: expressed in transfected cells; host or cells: SK-N-MC cells

human SERT = target: T2, human SERT (Homo sapiens, UniProt P31645); assay: Human SERT binding, 3H-citalopram displacement on HEK293 membranes; settings: HEK293 membranes expressing the human SERT, rt for 1 h
T2 construct: expressed in transfected cells; host or cells: HEK293
Protocol: Homogenized HEK293 (Human Embryonic Kidney) membranes expressing the human SERT were incubated with ^3H-citalopram (SERT) at rt for 1 h in 50 mM Tris, 120 mM NaCl, 5 mM KCl (pH 7.4). […] The membranes were washed and the radioactivity was counted as above.

[1] = read-out: Rat SERT Ki, rat brain membranes without cerebellum, 0.6 nM [3H]-Citalopram, 60 min at 25° C.

T2 sequence (P31645 whole entry): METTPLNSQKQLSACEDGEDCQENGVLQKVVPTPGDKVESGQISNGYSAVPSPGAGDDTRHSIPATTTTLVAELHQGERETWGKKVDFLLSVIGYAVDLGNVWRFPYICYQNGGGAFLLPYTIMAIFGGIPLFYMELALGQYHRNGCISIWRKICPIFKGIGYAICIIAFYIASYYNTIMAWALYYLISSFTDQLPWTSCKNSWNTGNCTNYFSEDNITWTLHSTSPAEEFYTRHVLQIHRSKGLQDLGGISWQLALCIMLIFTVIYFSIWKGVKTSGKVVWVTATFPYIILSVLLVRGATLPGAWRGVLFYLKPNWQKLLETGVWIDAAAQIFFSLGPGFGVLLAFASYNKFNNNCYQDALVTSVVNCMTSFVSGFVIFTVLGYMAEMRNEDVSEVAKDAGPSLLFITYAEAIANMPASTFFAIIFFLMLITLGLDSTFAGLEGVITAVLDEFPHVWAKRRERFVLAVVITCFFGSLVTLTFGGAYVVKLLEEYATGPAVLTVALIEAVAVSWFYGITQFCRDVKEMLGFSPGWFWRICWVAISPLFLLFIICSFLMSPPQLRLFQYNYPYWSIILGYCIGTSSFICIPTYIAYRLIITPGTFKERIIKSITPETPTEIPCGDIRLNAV
Sequence of Rat SERT (P31652 whole entry): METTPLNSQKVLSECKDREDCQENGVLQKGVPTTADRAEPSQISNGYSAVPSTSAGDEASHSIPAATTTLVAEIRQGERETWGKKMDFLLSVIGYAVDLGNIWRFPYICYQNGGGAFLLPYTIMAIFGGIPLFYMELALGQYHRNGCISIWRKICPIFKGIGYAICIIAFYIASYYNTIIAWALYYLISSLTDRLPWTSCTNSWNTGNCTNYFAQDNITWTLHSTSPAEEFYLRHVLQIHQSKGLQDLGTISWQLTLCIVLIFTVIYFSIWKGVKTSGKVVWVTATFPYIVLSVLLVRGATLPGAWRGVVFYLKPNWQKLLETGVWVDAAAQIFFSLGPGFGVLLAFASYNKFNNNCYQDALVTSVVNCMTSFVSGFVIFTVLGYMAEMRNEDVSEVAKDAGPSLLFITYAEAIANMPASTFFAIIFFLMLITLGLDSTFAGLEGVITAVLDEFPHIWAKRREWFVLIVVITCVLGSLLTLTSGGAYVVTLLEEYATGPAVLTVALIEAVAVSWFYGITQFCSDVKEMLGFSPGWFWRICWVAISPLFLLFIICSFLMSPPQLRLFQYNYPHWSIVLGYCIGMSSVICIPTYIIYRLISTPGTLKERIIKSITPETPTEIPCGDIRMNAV
T1 sequence (Q9Y5N1 whole entry): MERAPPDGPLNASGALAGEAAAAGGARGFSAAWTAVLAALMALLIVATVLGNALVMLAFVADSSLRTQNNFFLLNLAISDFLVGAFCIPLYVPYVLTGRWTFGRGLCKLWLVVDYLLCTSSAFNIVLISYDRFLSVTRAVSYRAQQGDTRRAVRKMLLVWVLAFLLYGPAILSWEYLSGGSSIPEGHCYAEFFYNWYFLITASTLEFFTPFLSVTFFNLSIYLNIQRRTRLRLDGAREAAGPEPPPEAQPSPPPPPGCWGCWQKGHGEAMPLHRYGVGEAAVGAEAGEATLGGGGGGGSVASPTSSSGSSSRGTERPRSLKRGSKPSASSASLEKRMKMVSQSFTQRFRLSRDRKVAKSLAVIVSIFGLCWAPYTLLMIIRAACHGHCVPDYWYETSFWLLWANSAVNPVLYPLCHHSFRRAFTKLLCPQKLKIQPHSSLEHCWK

Ki (Rat SERT)	Ki (human H3 receptor)	Ki (human SERT)	Compound	Ki (Rat SERT; [1])
56 nM	208 nM	51 nM	COc1ccc(C2CNCc3cc(OCCCN4CCC(F)(F)CC4)ncc32)cc1 (stereo not drawn) [Example 19, 7-[3-(4,4-Difluoro-piperidin-1-yl)-propoxy]-4-(4-methoxy-phenyl)-1,2,3,4-tetrahydro-[2,6]-naphthyridine]	–
1000 nM	45 nM	2000 nM	COc1ccc(C2CN(C)Cc3cc(C#CCCN4CCCCC4)cnc32)cc1 (stereo not drawn) [Example 48, 8-(4-Methoxy-phenyl)-6-methyl-3-(4-piperidin-1-yl-but-1-ynyl)-5,6,7,8-tetrahydro-[1,6]naphthyridine trifluoroacetic acid salt]	–
–	43 nM	189 nM	COc1ccc(C2CNCc3cc(OCCCN4CCOCC4)ncc32)cc1 (stereo not drawn) [Example 11, 4-(4-Methoxy-phenyl)-7-(3-morpholin-4-yl-propoxy)-1,2,3,4-tetrahydro-[2,6]-naphthyridine]	53 nM
–	5 nM	1140 nM	CN1Cc2cc(OCCCN3CCCCC3)ncc2C(c2ccccc2)C1 (stereo not drawn) [Example 3, 2-Methyl-4-phenyl-7-(3-piperidin-1-yl-propoxy)-1,2,3,4-tetrahydro-[2,6]-naphthyridine]	569 nM
74 nM	18 nM	70 nM	FC(F)(F)Oc1ccc(C2CNCc3cc(OCCCN4CCCCC4)ncc32)cc1 (stereo not drawn) [Example 44, 7-(3-Piperidin-1-yl-propoxy)-4-(4-trifluoromethoxy-phenyl)-1,2,3,4-tetrahydro-[2,6]naphthyridine]	–
21 nM	11 nM	32 nM	COc1ccc(C2CN(C)Cc3nc(C#CCCN4CCCCC4)ccc32)cc1 (stereo not drawn) [Example 51, 5-(4-Methoxy-phenyl)-7-methyl-2-(4-piperidin-1-yl-but-1-ynyl)-5,6,7,8-tetrahydro-[1,7]naphthyridine]	–
4 nM	1 nM	7 nM	COc1ccc(C2CN(C)Cc3nc(OCCCN4CCCCC4)ccc32)cc1 (stereo not drawn) [Example 50, 5-(4-Methoxy-phenyl)-7-methyl-2-(3-piperidin-1-yl-propoxy)-5,6,7,8-tetrahydro-[1,7]naphthyridine]	–
137 nM	796 nM	1020 nM	COc1ccc(C2CN(C)Cc3cc(OC4CCN(C)CC4)ncc32)cc1 (stereo not drawn) [Example 43, 4-(4-Methoxy-phenyl)-2-methyl-7-(1-methyl-piperidin-4-yloxy)-1,2,3,4-tetrahydro-[2,6]naphthyridine]	–
–	90 nM	70 nM	COc1ccc(C2CN(C)Cc3cc(OCCCN4CCOCC4)ncc32)cc1 (stereo not drawn) [Example 12, 4-(4-Methoxy-phenyl)-2-methyl-7-(3-morpholin-4-yl-propoxy)-1,2,3,4-tetrahydro-[2,6]-naphthyridine]	29 nM

Compound	Ki (Rat SERT)	Ki (human H3 receptor)	Ki (human SERT)	Ki (Rat SERT; [1])
CC(C)N1CCC(COc2cc3c(cn2)C(c2ccc(Cl)c(Cl)c2)CN(C)C3)CC1 (stereo not drawn) [Example 41, 4-(3,4-Dichloro-phenyl)-7-(1-isopropyl-piperidin-4-ylmethoxy)-2-methyl-1,2,3,4-tetrahydro-[2,6]naphthyridine]	–	13 nM	31 nM	23 nM
CN1Cc2cc(OCCCN3CCCCC3)ncc2C(c2cccc(Cl)c2)C1 (stereo not drawn) [Example 27, 4-(3-Chloro-phenyl)-2-methyl-7-(3-piperidin-1-yl-propoxy)-1,2,3,4-tetrahydro-[2,6]-naphthyridine]	–	7 nM	826 nM	144 nM
COc1ccc(C2CN(C)Cc3cc(OCC4CCN(C(C)C)CC4)ncc32)cc1 (stereo not drawn) [Example 40, 7-(1-Isopropyl-piperidin-4-ylmethoxy)-4-(4-methoxy-phenyl)-2-methyl-1,2,3,4-tetrahydro-[2,6]-naphthyridine]	–	13 nM	62 nM	45 nM
